This note sets out measurements from US4990518A, “Pharmacologically active heteroaryl substituted imidazo (4,5-c) pyridines” (G. D. Searle & Co., priority 1989, dated 1991).

pIC50: −log10 of the molar value.

Assay [1] concerns the target PAF receptor (Human Platelet Membrane Receptors) (Homo sapiens, UniProt P25105).
Experimental: Inhibition of ^3 H-PAF Binding to Human Platelet Membrane Receptors
Receptor Preparation: Ten units of in-dated human packed platelets, each containing 45-65 ml platelet rich-plasma, were purchased from a commercial blood bank. Disposable plasticware was used throughout for receptor preparation. The units were pooled and a 1 ml aliquot was removed for determination of platelet concentration, using a Coulter Counter. […] Protein content was determined by a fluorescamine protein assay.
Assay Methods: Receptor Characterization--Each receptor preparation was evaluated to determine the number of receptor populations, the number of PAF receptor equivalents/mg protein and the dissociation constant (KD) for PAF binding. This required 2-3 experiments in which the protein concentration was held constant and the ^3 H-PAF ligand concentration was varied from approximately 0.10-2.5 nM and the data was analyzed by Scatchard methodology. […]
Assay Methods: Routine Assay of Compounds--The compounds were weighed precisely and solubilized in quantities of DMSO such that a 5 μl aliquot in the incubate would deliver the desired compound concentration. Compounds tested for the first time in this assay were evaluated at a concentration of 50 μM in the incubation medium. […]
The subject of assay [2] is PAF-induced secretion of [^3 H]serotonin-labeled rabbit platelets. The experiment in a line: PAF-induced platelet secretion ([^3 H]serotonin). Format: cell-based. The conditions noted are these: Oryctolagus cuniculus, washed rabbit platelets, antagonist 60 sec before PAF (0.2 nM to 0.2 μM), read 60 sec after PAF. The procedure: (§1) PAF-induced platelet aggregation and secretion: Washed, [^3 H]serotonin labeled rabbit platelets were prepared as previously described in COX, C. P , J. LINDEN and S. I. SAID: VIP elevates platelet cyclic AMP (cAMP) levels and inhibits in vitro platelet activation induced by platelet-activating factor (PAF). Peptides 5:25-28, 1984, and maintained in an atmosphere of 5% CO2 at 37° C. until used in the bioassay. Aliquots of platelets (2.5×10^8 /ml) were incubated with either an antagonist of PAF or the appropriate vehicle for 60 sec prior to the addition of PAF (0.2 nM to 0.2 μM). Aggregation was continuously monitored on a strip-chart recorder and recorded as the height of the tracing at 60 sec after the addition of PAF. Secretion of [^3 H] serotonin was measured in a sample of the platelet suspension removed at 60 sec after the addition of PAF. The percent inhibition of aggregation and secretion was calculated by comparing antagonist-treated platelets with the appropriate vehicle-treated control platelets. Each combination of antagonist and PAF was repeated using different platelet preparations. IC50 values were determined by inspection of the dose-response curves.

Assay [3] concerns PAF-induced aggregation of washed rabbit platelets. In words: PAF-induced platelet aggregation. Format: cell-based. The conditions noted are these: Oryctolagus cuniculus, antagonist 60 sec before PAF (0.2 nM to 0.2 μM), read 60 sec after PAF. On the procedure:
as §1

Chain of PAF receptor (Human Platelet Membrane Receptors) (P25105 whole entry): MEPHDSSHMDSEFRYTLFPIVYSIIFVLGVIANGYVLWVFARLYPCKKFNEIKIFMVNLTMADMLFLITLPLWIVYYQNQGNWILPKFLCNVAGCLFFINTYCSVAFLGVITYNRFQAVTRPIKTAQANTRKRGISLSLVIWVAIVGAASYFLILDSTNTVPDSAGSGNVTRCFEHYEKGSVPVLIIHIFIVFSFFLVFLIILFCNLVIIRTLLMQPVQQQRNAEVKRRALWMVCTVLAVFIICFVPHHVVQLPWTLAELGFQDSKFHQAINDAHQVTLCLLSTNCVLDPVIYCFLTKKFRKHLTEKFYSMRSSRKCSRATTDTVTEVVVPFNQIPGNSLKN

By pIC50 is commonly meant the negative decadic logarithm of the IC50, by convention in mol/L. In assay [1], `O=C(c1ccc(Cn2ccc3ncnc-3c2)nc1)N(C1CCCC1)C1CCCC1` [Example 1, N,N-dicyclopentyl-6-(5H-imidazo[4,5-c]pyridin-5-yl-methyl)-3-pyridinecarboxamide] had a pIC50 of 6.06.
Consider `CN(C(=O)c1ccc(Cn2ccc3ncnc-3c2)o1)C1CCCCC1` [Example 2, N-cyclohexyl-5-[(5H-imidazo[4,5-c]pyridin-5-yl)methyl]N-methyl-2-furancarboxamide], for which the pIC50 in assay [2] is 4.30; in assay [3] it was ~4.00.
For `O=C(c1ccc(Cn2ccc3ncnc-3c2)o1)N(C1CCCCC1)C1CCCC1` [Example 3], in that order: 5.55 and 4.00 to 5.00.
What is called inhibition is the share of the control response that was lost under treatment. As for `Cc1nnc2n1-c1ccc(Cl)cc1C(c1ccccc1Cl)=NC2` [Triazolam, triazolam, reference compound], the inhibition at 50 µM in assay [1] (read-out: inhibited ^3 H-PAF binding (triazolam compound inhibition control)) is ~50%.
